What was measured:
[1] = tested on: IL-1β induced IL-6 expression in mesothelial cells (CRL-9444); experiment: IL-6 ELISA, mesothelial cells induced with IL-1β; format: cell-based; details: IL-1β 1 ng/ml
Protocol: A cell line of pleural mesothelial cells (CRL-9444) was purchased from American Type Culture Collection. Cells were maintained and seeded in Medium 199 with Earle's BSS and 0.75 mM L-glutamine (Mediatech, Inc., Manassas, Va.), 1.25 g/L sodium bicarbonate (Sigma, St. Louis, Mo.), 3.3 nM epidermal growth factor (MBL International, Woburn, Mass.), 40 nM hydrocortisone (Sigma), 870 nM insulin (MBL International), 20 mM HEPES (Sigma), trace elements mixture B (Mediatech, Inc.), 10% fetal bovine serum (FBS) (Hyclone, Waltham, Mass.) and 1% penicillin/streptomycin (Mediatech, Inc.). Prior to treating cells with therapeutic inhibitor peptides, cells were allowed to acclimate in serum-free media consisting of only Medium 199 with Earle's BSS. L-glutamine, sodium bicarbonate, HEPES, trace elements mixture B, and penicillin/streptomycin (concentrations and suppliers as above) for 24 hours prior to treatment with cytokines and/or inhibitor peptides. […] For all cell culture experiments, the cell-penetrating MK2 inhibitor peptide sequence [sequence] [SEQ ID NO: 11] was used.
IL-6 analysis was performed with a IL-6 ELISA kit (PeproTech, Inc., Rocky Hill, N.J.). Briefly, the plate was prepared as follows. The capture antibody (antigen-affinity purified goat anti-hIL-6+2.5 mg D-mannitol) was diluted with phosphate buffered saline (PBS) to a concentration of 1 μg/ml and added to the each well of the plate. The plate was sealed and incubated at room temperature overnight. The wells then were aspirated to remove liquid, and washed 4 times using wash buffer (300 μl per well of 0.05% Tween-20 in PBS). After the last wash, the plate was inverted to remove residual buffer, and blotted on a paper towel. Block buffer (300 μl per well of 1% BSA in PBS) was added, the plate incubated for at least 1 hour at room temperature, aspirated and washed 4 times.
Standards (from 2 ng/ml to zero) and samples were prepared in diluent, immediately added to each well in triplicate, and incubated at room temperature for at least 2 hours on a plate shaker adjusted to 300 rpm. […] Following the incubation, the plate was aspirated, washed 4 times, avidin-horse radish peroxidase (HRP) conjugate added ((5.5 μl:10994.5 μl diluent) (100 μl) to each well, incubated for 30 minutes at room temperature on a plate shaker adjusted to 300 rpm, aspirated, and washed 4 times. To each well then was added ABTS Liquid Substrate Solution (Sigma) (100 μl). The plate was incubated at room temperature for color development on a plate shaker adjusted to 300 rpm. Absorbance was measured at 405 nm and 650 nm (650 nm was the wavelength correction subtracted from each 405 nm measurement) using a Spectramax M5 Microplate Reader (Molecular Devices) every 5 minutes for 50 minutes. Hoeschst 33342 nuclear stain (Invitrogen) was used to quantify cell number on the basis of DNA quantity. All results were run in triplicate and normalized to cell number.
One-way ANOVA analyses were used to determine statistically significant increases or decreases in parameters of interest. Significant differences were analyzed with Tukey HSD post hoc comparisons. A significance level of α=0.05 was used in cytokine analyses.
Mesothelial cells were incubated with IL-1β (1 ng/ml) (to induce IL-6 expression) and/or different concentrations of therapeutic inhibitor peptide. The commercially available protein kinase inhibitor Rottlerin was introduced as an inhibitor of both MK2 and PRAK.

[2] = tested on: IL-1β expression in rat primary cortical astrocyte cultures; details: 1 mM or 3 mM MK2i with TNF-α 5 or 10 ng/ml; 18-22 hours
Protocol: Primary rat astrocytes were isolated from embryonic day 18 Sprague Dawley rat cortices. […] Briefly, the rat cortexes were triturated with a 1 ml pipet aid until most of the large cortex pieces were dispersed. After larger tissue fragments were allowed to settle, the supernatant was collected, in a 15 ml conical tube, and pelleted by centrifugation at 1100 rpm for 1 minute. The resulting supernatant was discarded and the pellet resuspended in neurobasal media (10% horse serum, 3 mM glutamine). The astrocytes then were seeded in the petri dishes and grown until they were confluent (80-95%) after which time they were passed. Astrocytes were passed 1:4, grown to 80-95% confluency, then rinsed twice with PBS. Different treatment types were applied to each corresponding petri dish for 18-22 hours. There was a total of 1 ml of media (neurobasal media with 10% horse serum, 3 mM glutamine) plus treatment in each petri dish. […]
After 18-22 hours, the cells were rinsed with PBS, scraped into a small centrifuge tube using a lysis buffer (8 M urea, 4% CHAPS, 10 mM DTT), and disrupted by using a Disruptor Genie™ (Scientific Industries, Bohemia, N.Y.) for 2 hours. The cells were pelleted by centrifugation at 17 krpm for 15 minutes, the supernatant (cell lysate) collected and the total protein concentration quantified (Pierce BCA Protein Assay kit, Thermo Fisher Scientific, Rockford, Ill.).

Tie2 = molecular target: T1, Tie2 (Homo sapiens, UniProt Q02763); experiment: Millipore radiometric kinase activity assay, Tie2 (h); format: biochemical
T1 construct: purchased Millipore (radiometric assay service)
Protocol: (§1) A commercial radiometric assay service (Millipore, Billerica, Mass.) was used to test the specificity and potency of peptides containing a coupled transduction domain and therapeutic domain, hereinafter “complete peptides”). In these assays, if the kinase is not inhibited by an inhibitor peptide, a positively charged substrate is phosphorylated with a radiolabeled phosphate group from an ATP.
In a final reaction volume of 25 μL, Tie2 (h) (5-10 mU) is incubated with 8 mM MOPS pH 7.0, 0.2 mM EDTA, 0.5 mM MnCl2, 0.1 mg/mL poly(Glu, Tyr) 4:1, 10 mM MgAcetate and [γ-^33P-ATP] (specific activity approx. 500 cpm/pmol, concentration as required). The reaction is initiated by the addition of the MgATP mix. After incubation for 40 minutes at room temperature, the reaction is stopped by the addition of 5 μL of a 3% phosphoric acid solution. 10 μL of the reaction is then spotted onto a Filtermat A and washed three times for 5 minutes in 75 mM phosphoric acid and once in methanol prior to drying and scintillation counting.
IC50 values for inhibitor peptides were determined using Millipore's IC50Profiler Express service. The IC50 value was estimated from a 10-point curve of one-half log dilutions. […]

10 Human Kinases = experiment: Specificity of complete inhibitor peptide variants on 10 human kinases; format: biochemical; details: Table 5
Protocol: as §1
IC50 values for inhibitor peptides were determined using Millipore's IC50Profiler Express service. The IC50 value was estimated from a 10-point curve of one-half log dilutions. For peptides tested for specificity, the concentration of the peptides that inhibited approximately 95% of MK2 activity was chosen to profile against a battery of kinases related to MK2, cell viability, or human disease from MilliporeKinaseProfiler service. In both assays, compounds were supplied in dimethylsulfoxide (DMSO). Every kinase activity measurement was conducted in duplicate.
Additional therapeutic inhibitor peptide variants were assayed for activity against several human kinases representative of several families of kinases. […]

MK2 = MK2 (Homo sapiens, UniProt P49137); experiment: Omnia fluorescence-based kinase activity assay for MAPKAP-K2 (reaction velocity); format: biochemical; set-up: purchased Invitrogen; details: 100 μM peptide; percentage change in MK2 reaction velocity versus unsubstituted KALNRQLGVAA at 100 μM; SD of three samples
Protocol: The Omnia® Kinase Assay for MAPKAP-K2 kit (Invitrogen, Carlsbad, Calif.), was used to determine the reaction velocity for MK2 in the presence and absence of each of the peptides listed in Table 1. The kit contains a proprietary reaction buffer to which the following were added (final concentrations are given): 1 mM ATP, 0.2 mM DTT, 10 μM MAPKAP-K2 Sox-modified peptide substrate, 5 ng MK2, and the inhibitor peptide of interest (final volume of 50 μL). Human MK2 was purchased from Invitrogen. The reactions were performed at 30° C. in the wells of a low-protein-binding 96-well plate provided with the kit, and fluorescence readings (excitation=360 nm, emission=485 nm) were taken every 30 seconds for 20 minutes using a SpectraMax M5 Spectrophotometer (Molecular Devices). Reaction velocity was determined for each reaction well from the slope of a plot of relative fluorescence units versus time. Each inhibitor peptide was tested at least at four concentrations, 12.5, 25, 50 and […], in triplicate.
In Table 1, “a” represents that the results shown are for 100 μM for all peptides; “b” represents the percentage change in MK2 reaction velocity versus the unsubstituted peptide ([…]) [SEQ ID NO: 13] at a concentration of 100 μM; “c” represents the error reported as the standard deviation between three samples.

T1 sequence (Q02763 23-1124): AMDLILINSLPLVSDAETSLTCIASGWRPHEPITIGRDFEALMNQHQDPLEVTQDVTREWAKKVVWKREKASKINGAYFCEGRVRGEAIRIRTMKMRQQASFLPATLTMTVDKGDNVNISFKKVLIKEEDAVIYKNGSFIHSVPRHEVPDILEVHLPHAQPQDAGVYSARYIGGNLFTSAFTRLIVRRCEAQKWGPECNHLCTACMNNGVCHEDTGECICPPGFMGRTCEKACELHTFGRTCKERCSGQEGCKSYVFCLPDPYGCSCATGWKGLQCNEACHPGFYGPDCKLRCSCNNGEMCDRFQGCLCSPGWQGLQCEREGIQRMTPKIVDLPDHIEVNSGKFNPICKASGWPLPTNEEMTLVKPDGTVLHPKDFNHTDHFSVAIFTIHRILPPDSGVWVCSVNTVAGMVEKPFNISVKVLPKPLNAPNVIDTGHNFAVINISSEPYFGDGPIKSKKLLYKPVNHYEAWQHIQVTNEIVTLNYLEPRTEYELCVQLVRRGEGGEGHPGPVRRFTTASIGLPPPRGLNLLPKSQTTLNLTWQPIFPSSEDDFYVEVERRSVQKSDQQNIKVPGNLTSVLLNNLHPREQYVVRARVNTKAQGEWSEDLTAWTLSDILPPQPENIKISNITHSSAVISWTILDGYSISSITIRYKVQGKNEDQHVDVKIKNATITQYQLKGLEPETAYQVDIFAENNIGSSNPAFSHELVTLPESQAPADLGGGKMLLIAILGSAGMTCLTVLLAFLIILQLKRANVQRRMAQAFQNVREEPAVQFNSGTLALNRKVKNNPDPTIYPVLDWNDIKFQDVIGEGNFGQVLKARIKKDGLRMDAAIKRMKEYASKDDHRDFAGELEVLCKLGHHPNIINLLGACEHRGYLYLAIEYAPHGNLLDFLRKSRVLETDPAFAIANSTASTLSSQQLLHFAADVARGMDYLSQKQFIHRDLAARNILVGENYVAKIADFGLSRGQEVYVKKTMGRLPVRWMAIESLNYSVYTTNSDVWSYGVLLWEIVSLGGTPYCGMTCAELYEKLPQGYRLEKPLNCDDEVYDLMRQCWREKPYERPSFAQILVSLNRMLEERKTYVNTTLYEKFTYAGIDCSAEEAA
Chain of MK2 (P49137 whole entry): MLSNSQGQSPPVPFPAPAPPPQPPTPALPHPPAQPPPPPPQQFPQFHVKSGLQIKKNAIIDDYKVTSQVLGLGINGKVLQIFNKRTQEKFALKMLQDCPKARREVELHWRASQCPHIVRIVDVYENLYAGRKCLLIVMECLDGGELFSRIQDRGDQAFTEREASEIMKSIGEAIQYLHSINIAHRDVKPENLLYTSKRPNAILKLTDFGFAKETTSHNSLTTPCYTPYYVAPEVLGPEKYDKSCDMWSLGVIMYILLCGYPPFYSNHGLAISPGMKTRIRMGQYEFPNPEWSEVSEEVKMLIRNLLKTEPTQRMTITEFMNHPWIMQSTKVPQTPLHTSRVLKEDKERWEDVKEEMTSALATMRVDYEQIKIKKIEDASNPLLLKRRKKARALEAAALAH

Sequence	IL-1β induced IL-6 expression (FIG. 7) ([1]; different concentrations of peptide)	time at which significant reduction of IL-1β induced IL-6 expression occurs ([1]; peptide 3 mM)	IL-1β induced IL-6 expression (FIG. 7) ([1]; peptide 3 mM (highest concentration))	level of expression of IL-1β (FIG. 10) [2]	Tie2 Kinase Activity (%) (+SD %) (Tie2; peptide 30 μM)	Tie2 Kinase Activity (%) (+SD %) (Tie2; peptide 100 μM)	specificity among therapeutic inhibitor peptides (in words) (10 Human Kinases)	percent change in MK2 reaction velocity versus unsubstituted peptide (MK2)
YARAAARQARAKALARQLGVAA	inhibited	6 h	significantly reduced	able to inhibit	–	–	–	–
WLRRIKAWLRRIKALNRQLGVAA	–	–	–	–	17 (1) %	0 (0) %	least specificity	−132(10) %

Reference: US9327008B2, “Cell-permeant peptide-based inhibitor of kinases” (Purdue Research Foundation, priority 2008, dated 2016)
